US20150105252A1, “SUBSTITUTED PYRAZOLES AS HERBICIDES” (E I DU PONT DE NEMOURS AND COMPANY, priority 2013, published 2015)

Columns and labels:
Test in all cases: Test C postemergence
ragweed = assay type: in vivo, Ambrosia elation
Summary of the method: (§1)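 Herbicidal effect is expressed as percent visual control (0–100) judged against untreated plants 13 to 15 days after treatment in the greenhouse. Preemergence pots contained seeds in a soil–sand blend; postemergence plants, 2–18 cm tall, grew in peat-based planting medium.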

lambsquarters = assay type: in vivo, Chenopodium album
Summary of the method: as §1

barnyardgrass = assay type: in vivo, Echinochloa crus-galli
Summary of the method: as §1

crabgrass, large = assay type: in vivo, Digitaria sanguinalis
Summary of the method: as §1

blackgrass = assay type: in vivo, Alopecurus myosuroides
Summary of the method: as §1

oat, wild = assay type: in vivo, Avena fatua
Summary of the method: as §1

velvetleaf = assay type: in vivo, Abutilon theophrasti
Summary of the method: as §1

galium = assay type: in vivo, Galium aparine
Summary of the method: as §1

johnsongrass = assay type: in vivo, Sorghum halepense
Summary of the method: as §1

chickweed = assay type: in vivo, Stellaria media
Summary of the method: as §1

corn = assay type: in vivo, Zea mays
Summary of the method: as §1

ryegrass, Italian = assay type: in vivo, Lolium multiflorum
Summary of the method: as §1

kochia = assay type: in vivo, Kochia scoparia
Summary of the method: as §1

soybean = assay type: in vivo, Glycine max
Summary of the method: as §1

wheat = assay type: in vivo, Triticum aestivum
Summary of the method: as §1

pigweed = assay type: in vivo, Amaranthus retroflexus
Summary of the method: as §1

foxtail, giant = assay type: in vivo, Setaria faberii
Summary of the method: as §1

[1] = Postemergence, 31 g ai/ha, visually evaluated after 13 to 15 days
[2] = postemergence, 62 g ai/ha, scale 0 to 100
[3] = postemergence, 250 g ai/ha, scale 0 to 100 (0 no effect, 100 complete control)
[4] = postemergence, 125 g ai/ha, scale 0 to 100, 0 no effect, 100 complete control

CCCc1cc(C(=O)NCC)nn1Cc1cc(C(F)(F)F)nn1C [Compound 129]
Plant response rating (scale of 0 to 100 where 0 is no effect and 100 is complete control), Ragweed (ragweed; [1]): 55 | Ragweed plant response rating (ragweed; [2]): 90 | Plant response rating, Ragweed (ragweed; [3]): 85 | Plant response rating, Ragweed (ragweed; [4]): 75 | Plant response rating (scale of 0 to 100 where 0 is no effect and 100 is complete control), Lambsquarters (lambsquarters; [1]): 55 | Lambsquarters plant response rating (lambsquarters; [2]): 100 | Plant response rating, Lambsquarters (lambsquarters; [3]): 98 | Plant response rating, Lambsquarters (lambsquarters; [4]): 98 | Plant response rating (scale of 0 to 100 where 0 is no effect and 100 is complete control), Barnyardgrass (barnyardgrass; [1]): 5 | Barnyardgrass plant response rating (barnyardgrass; [2]): 10 | Plant response rating, Barnyardgrass (barnyardgrass; [3]): 55 | Plant response rating, Barnyardgrass (barnyardgrass; [4]): 10 | Plant response rating (scale of 0 to 100 where 0 is no effect and 100 is complete control), Crabgrass, Large (crabgrass, large; [1]): 10 | Crabgrass, Large plant response rating (crabgrass, large; [2]): 10 | Plant response rating, Crabgrass, Large (crabgrass, large; [3]): 20 | Plant response rating, Crabgrass, Large (crabgrass, large; [4]): 35 | Plant response rating (scale of 0 to 100 where 0 is no effect and 100 is complete control), Blackgrass (blackgrass; [1]): 10 | Blackgrass plant response rating (blackgrass; [2]): 5 | Plant response rating, Blackgrass (blackgrass; [3]): 20 | Plant response rating, Blackgrass (blackgrass; [4]): 35 | Plant response rating (scale of 0 to 100 where 0 is no effect and 100 is complete control), Oat, Wild (oat, wild; [1]): 30 | Oat, Wild plant response rating (oat, wild; [2]): 30 | Plant response rating, Oat, Wild (oat, wild; [3]): 35 | Plant response rating, Oat, Wild (oat, wild; [4]): 35 | Plant response rating (scale of 0 to 100 where 0 is no effect and 100 is complete control), Velvetleaf (velvetleaf; [1]): 25 | Velvetleaf plant response rating (velvetleaf; [2]): 65 | Plant response rating (scale of 0 to 100 where 0 is no effect and 100 is complete control), Galium (galium; [1]): 60 | Galium plant response rating (galium; [2]): 65 | Plant response rating, Galium (galium; [3]): 80 | Plant response rating, Galium (galium; [4]): 80 | Plant response rating (scale of 0 to 100 where 0 is no effect and 100 is complete control), Johnsongrass (johnsongrass; [1]): 5 | Johnsongrass plant response rating (johnsongrass; [2]): 10 | Plant response rating, Johnsongrass (johnsongrass; [3]): 10 | Plant response rating, Johnsongrass (johnsongrass; [4]): 10 | Plant response rating (scale of 0 to 100 where 0 is no effect and 100 is complete control), Chickweed (chickweed; [1]): 50 | Chickweed plant response rating (chickweed; [2]): 70 | Plant response rating, Chickweed (chickweed; [3]): 100 | Plant response rating, Chickweed (chickweed; [4]): 80 | Plant response rating (scale of 0 to 100 where 0 is no effect and 100 is complete control), Corn (corn; [1]): 10 | Corn plant response rating (corn; [2]): 10 | Plant response rating, Corn (corn; [3]): 15 | Plant response rating, Corn (corn; [4]): 15 | Plant response rating (scale of 0 to 100 where 0 is no effect and 100 is complete control), Ryegrass, Italian (ryegrass, Italian; [1]): 0 | Ryegrass, Italian plant response rating (ryegrass, Italian; [2]): 5 | Plant response rating, Ryegrass, Italian (ryegrass, Italian; [3]): 5 | Plant response rating, Ryegrass, Italian (ryegrass, Italian; [4]): 5 | Plant response rating (scale of 0 to 100 where 0 is no effect and 100 is complete control), Kochia (kochia; [1]): 90 | Kochia plant response rating (kochia; [2]): 90 | Plant response rating, Kochia (kochia; [3]): 90 | Plant response rating, Kochia (kochia; [4]): 90 | Plant response rating (scale of 0 to 100 where 0 is no effect and 100 is complete control), Soybean (soybean; [1]): 85 | Soybean plant response rating (soybean; [2]): 98 | Plant response rating, Soybean (soybean; [3]): 98 | Plant response rating, Soybean (soybean; [4]): 98 | Plant response rating (scale of 0 to 100 where 0 is no effect and 100 is complete control), Wheat (wheat; [1]): 0 | Wheat plant response rating (wheat; [2]): 5 | Plant response rating, Wheat (wheat; [3]): 5 | Plant response rating, Wheat (wheat; [4]): 5 | Plant response rating (scale of 0 to 100 where 0 is no effect and 100 is complete control), Pigweed (pigweed; [1]): 85 | Pigweed plant response rating (pigweed; [2]): 95 | Plant response rating, Pigweed (pigweed; [3]): 95 | Plant response rating, Pigweed (pigweed; [4]): 100 | Plant response rating (scale of 0 to 100 where 0 is no effect and 100 is complete control), Foxtail, Giant (foxtail, giant; [1]): 15 | Foxtail, Giant plant response rating (foxtail, giant; [2]): 20 | Plant response rating, Foxtail, Giant (foxtail, giant; [3]): 45 | Plant response rating, Foxtail, Giant (foxtail, giant; [4]): 35
